Experimental data as given in PMC12830207, “Targeting the protein–protein interaction between the CDC37 cochaperone and client kinases by an allosteric RAF dimer breaker” (The Journal of Biological Chemistry, 2025).

Columns and labels:
[1] = system: WM3629 cells; settings: WM3629, reported; read-out: EC50, braftide, WM3629; cited from earlier work
Text: Based on the observed synergistic effects of inhibiting the ternary complex, the antiproliferative effects were explored using combinatorial treatment in two RAF-dimer–dependent cell lines: HCT116 and WM3629. HCT116 cells mainly rely on the wildtype BRAF–CRAF heterodimer and BRAF–BRAF homodimer to relay the MAPK signal, whereas WM3629 cells contain the BRAF D594G mutant, which is a kinase-dead mutant and depends on dimerization with CRAF for activation ([34]).

[2] = system: CDC37–CRAF interaction; assay: Co-IP of CDC37-FLAG with CRAF-HA in HEK293; assay type: cell-based, human (HEK293); settings: HEK293, 25 μM braftide, bortezomib pretreatment
Procedure: (§1) HEK293 cells were seeded at 1(10)^6 cells per well for a 6-well plate or 5(10)^6 for 10 cm dishes and incubated until 40% to 60% confluency. Transfection was carried out using a 1:3 DNA:PEI-MAX ratio in OPTI-MEM and allowed 48 h for protein expression. For peptide assays, 48 h post-transfection, cells were treated with TAT–braftide carried in OPTI-MEM at indicated concentrations. Cells were harvested in cold PBS. Harvested cells were lysed in 4% SDS or modified radioimmunoprecipitation assay (RIPA) for co-IP experiments. Quantification of total protein by the bicinchoninic acid assay was carried out according to the manufacturer's protocols (Pierce; catalog no.: 23225).
(§2) Transfected HEK293 cells were treated with the indicated treatments and harvested in cold PBS. […] Samples were analyzed via immunoblot.
(§3) Western blot band densities were quantified with ImageJ software (National Institutes of Health) and normalized to the indicated loading control. Statistical significance was determined through one-/two-way ANOVA, where indicated, followed by Tukey's honest significant difference post hoc test with corresponding p values (∗p < 0.05, ∗∗p < 0.002, ∗∗∗p < 0.0002, and ∗∗∗∗p < 0.0001). […]

[3] = system: CDC37–BRAF interaction; assay: Co-IP of CDC37-FLAG with BRAF-V5 in HCT116; assay type: cell-based; settings: HCT116, 5 µM braftide, three biological replicates
Procedure: as §1, §2, §3

[4] = system: CRAF–CDC37/HSP90 chaperone complex; assay: Co-IP of MBP-CRAF-FLAG with endogenous CDC37–HSP90 chaperone complex; assay type: cell-based, human (HEK293); settings: HEK293, 50 μM braftide, 4 h, bortezomib pretreatment, three biological replicates
Procedure: as §1, §2, §3

GRKKRRQRRRPQ-miniPEG-TRHVNILLFM [Braftide]
EC50 [1]: 11.1 ± 1.12 µM
CDC37–CRAF complex [2]: reduced the CDC37–client BRAF–CRAF complex
CDC37–BRAF interaction [3]: decreases its association with coimmunoprecipitated BRAF-V5 and CRAF-HA
CDC37–BRAF interaction ([3]; listed as braftide): reduced the CDC37–RAF interaction at lower doses than in HEK293 cells
association of CRAF with CDC37 and HSP90 [4]: reduced their association with CDC37 and HSP90 compared with the nontreated control
